Source: the NIST ThermoML archive (doi:10.1021/acs.jced.5b00941)

Experiments:
[1] = mn = molality of the nth substance listed, in mol/kg; conditions: 100 kPa, Liquid; for viscosity: Falling or rolling sphere viscometry; for mass density: Vibrating tube method
[2] = 100 kPa, Liquid, Falling or rolling sphere viscometry

[Cl-].[K+] [potassium chloride] + O
[1]
Conditions	mass density, 288.15 K [kg/m3]	mass density, 293.15 K [kg/m3]	mass density, 298.15 K [kg/m3]	mass density, 303.15 K [kg/m3]	mass density, 308.15 K [kg/m3]	viscosity, 288.15 K [mPa·s]	viscosity, 293.15 K [mPa·s]	viscosity, 298.15 K [mPa·s]	viscosity, 303.15 K [mPa·s]	viscosity, 308.15 K [mPa·s]
m1 = 0.1	1003.85	1002.92	1001.71	1000.28	998.631	1.145	1.01	0.896	0.801	0.722
m1 = 0.2	1008.58	1007.58	1006.33	1004.85	1003.19	1.145	1.01	0.896	0.801	0.723
m1 = 0.3	1013.16	1012.13	1010.84	1009.34	1007.64	1.145	1.011	0.897	0.801	0.726
m1 = 0.4	1017.86	1016.77	1015.43	1013.89	1012.18	1.147	1.013	0.897	0.801	0.73
m1 = 0.5	1022.32	1021.2	1019.84	1018.27	1016.52	1.152	1.027	0.899	0.802	0.73

[Cl-].[Na+] [sodium chloride] + O
[1]
Conditions	mass density, 288.15 K [kg/m3]	mass density, 293.15 K [kg/m3]	mass density, 298.15 K [kg/m3]	mass density, 303.15 K [kg/m3]	mass density, 308.15 K [kg/m3]	viscosity, 288.15 K [mPa·s]	viscosity, 293.15 K [mPa·s]	viscosity, 298.15 K [mPa·s]	viscosity, 303.15 K [mPa·s]	viscosity, 308.15 K [mPa·s]
m1 = 0.1	1003.32	1002.36	1001.15	999.711	998.058	1.146	1.011	0.892	0.804	0.73
m1 = 0.2	1007.43	1006.42	1005.14	1003.65	1001.98	1.149	1.016	0.901	0.812	0.738
m1 = 0.3	1011.33	1010.27	1008.96	1007.44	1005.73	1.151	1.019	0.91	0.82	0.745
m1 = 0.4	1015.65	1014.53	1013.16	1011.6	1009.85	1.158	1.026	0.917	0.827	0.751
m1 = 0.5	1019.41	1018.24	–	1015.24	1013.48	1.165	1.033	0.925	0.834	0.76

O [water]
[2]
Conditions	viscosity [mPa·s]
288.15 K	1.145
293.15 K	1.01
298.15 K	0.896
303.15 K	0.801
308.15 K	0.721
